Test results published in patent US20240252493A1, “Apelin Receptor Modulators for Treating Age-Related Muscle Conditions” (BIOAGE LABS, INC., priority 2021, published 2024).

How the values were obtained:
[1] = tested on: Pax7, MyoD, MyoG, Myf5, MyHC3, and MyHC8; experiment: CTX-induced muscle injury: transcript levels of regeneration genes; type: in vivo, mice
Description: Impairment of muscle regeneration can contribute to age-related muscle weakness. This is particularly true in aged individuals who engage in physical activity. Exercise-induced muscle hypertrophy is linked to the capacity of muscle stem cells to be activated and promote regeneration. […] Mice were i.p injected with buprenorphine (Centravet, 0.1 mg/kg) 30 minutes before injury and the day after. The day of the injury, mice were anesthetized with isoflurane inhalation and hindlimbs were shaved. Then, 10 μM of cardiotoxin (CTX, Latoxan, #L8102) was injected through two injections of 25 μl into the left tibialis muscle and two injections of 50 μl into the left gastrocnemius muscle, using a 22-gauge needle (Hamilton). Mice were euthanized 3 and 7 days after injury by cervical dislocation, muscles (PBS- and CTX-injected) were cut in two parts, one being snap frozen into liquid nitrogen for total RNA extraction and the other part being embedded into OCT, frozen in isopentane cooled with liquid nitrogen for histological analysis.

[2] = tested on: tibialis of aged mice; experiment: CTX-induced muscle injury: histology (cross-sectional area, centrally nucleated fibers); type: in vivo
Description: Impairment of muscle regeneration can contribute to age-related muscle weakness. This is particularly true in aged individuals who engage in physical activity. Exercise-induced muscle hypertrophy is linked to the capacity of muscle stem cells to be activated and promote regeneration.
Mice were i.p injected with buprenorphine (Centravet, 0.1 mg/kg) 30 minutes before injury and the day after. The day of the injury, mice were anesthetized with isoflurane inhalation and hindlimbs were shaved. Then, 10 μM of cardiotoxin (CTX, Latoxan, #L8102) was injected through two injections of 25 μl into the left tibialis muscle and two injections of 50 μl into the left gastrocnemius muscle, using a 22-gauge needle (Hamilton). Mice were euthanized 3 and 7 days after injury by cervical dislocation, muscles (PBS- and CTX-injected) were cut in two parts, one being snap frozen into liquid nitrogen for total RNA extraction and the other part being embedded into OCT, frozen in isopentane cooled with liquid nitrogen for histological analysis.
Mouse muscle samples were dissected and cryopreserved in OCT frozen in liquid nitrogen cooled isopentane. Samples were then sectioned at 10 μm on a cryostat and post-fixed with 4% Paraformaldehyde (PFA) for 15min at room temperature. Muscle frozen sections (10 μm) were stained by helaun/eosin or immune-labeled for laminin (Abcam) and embryonic myosin. Briefly, sections were blocked 1 h in PBS plus 4% BS(a), 2% goat serum, 0.01% Triton X-100. Sections were then incubated overnight with primary antibodies. After washes in PBS, sections were incubated 1 h with secondary antibodies anti-Ig2b AF 488 (Life Technology). Slides were finally mounted in ProLong Gold antifade Reagent (Molecular probes by Life Technology) with DAPI. Images were captured using a digital camera (Nanozoomer, Hamamatsu) attached to a motorized fluorescence microscope or using Olympus VS120 Virtual Microscopy Slide Scanning System. The area covered by eMHC-positive fibers and degenerated area was determined manually across the entire sections using the VS-ASW FL software measurement tools. The size of myofibers with central nuclei was calculated from laminin/DAPI staining on all fibers of the section and area determination were performed across the entire sections, using an automated image processing algorithm developed internally using the MetaXpress software (Molecular Devices).

[3] = gastrocnemius, aged mice, 3 or 7 days, apelin 0.5 μmol/kg/day, BGE-105 50 and 200 mg/kg/day
[4] = gastrocnemius, young mice, 3 or 7 days, apelin 0.5 μmol/kg/day, BGE-105 50 and 200 mg/kg/day
[5] = tibialis anterior, aged mice, 7 days, apelin 0.5 μmol/kg/day, BGE-105 50 and 200 mg/kg/day
[6] = tibialis, young mice, 3 or 7 days, apelin 0.5 μmol/kg/day, BGE-105 50 and 200 mg/kg/day

**Q.** With CSCC[C@H](NC(=O)[C@@H]1CCCN1C(=O)CNC(=O)[C@H](CCCCN)NC(=O)[C@H](Cc1c[nH]cn1)NC(=O)[C@H](CO)NC(=O)[C@H](CC(C)C)NC(=O)[C@H](CCCNC(=N)N)NC(=O)[C@@H]1CCCN1C(=O)[C@H](CCCNC(=N)N)NC(=O)[C@@H]1CCC(=O)N1)C(=O)N1CCC[C@H]1C(=O)N[C@@H](Cc1ccccc1)C(=O)O [Pyr^1-Apelin-13, reference compound] as the compound, how does the Pax7 transcript levels ([1]; gastrocnemius, aged (18-month-old) mice, 3 or 7 days, apelin 0.5 μmol/kg/day, BGE-105 50 and 200 mg/kg/day) read?
**A.** Its Pax7 transcript levels is “no significant change”.

**Q.** What about the MyoD transcript levels ([1]; gastrocnemius, aged mice, 3 and 7 days, apelin 0.5 μmol/kg/day, BGE-105 50 and 200 mg/kg/day) of the same compound?
**A.** Its MyoD transcript levels is “significant increase”.

**Q.** What about the Myf5 transcript levels [1, 3] of the same compound?
**A.** The Myf5 transcript levels was “no significant change”.

**Q.** What about the MyoG transcript levels [1, 3] of the same compound?
**A.** The MyoG transcript levels was “no significant change”.

**Q.** And the MyHC8 transcript levels ([1]; gastrocnemius, aged mice, any time point, any treatment)?
**A.** The MyHC8 transcript levels was “does not show a change”.

**Q.** And the Pax7 transcript levels ([1]; gastrocnemius, young (3-month-old) mice, 3 or 7 days, apelin 0.5 μmol/kg/day, BGE-105 50 and 200 mg/kg/day)?
**A.** The Pax7 transcript levels was “no change”.

**Q.** And the Myf5 transcript levels [1, 4]?
**A.** The Myf5 transcript levels was “no change”.

**Q.** What about the MyoD transcript levels [1, 4] of the same compound?
**A.** Its MyoD transcript levels is “no change”.

**Q.** What about the MyoG transcript levels [1, 4] of the same compound?
**A.** The MyoG transcript levels was “no change”.

**Q.** And the MyHC8 transcript levels ([1]; gastrocnemius, young mice, 3 days, apelin 0.5 μmol/kg/day, BGE-105 50 and 200 mg/kg/day)?
**A.** The MyHC8 transcript levels was “non-significant increase”.

**Q.** And the Pax7 transcript levels ([1]; tibialis anterior, aged (18-month-old) mice, 7 days post cardiotoxin, apelin 0.5 μmol/kg/day, BGE-105 50 and 200 mg/kg/day)?
**A.** Its Pax7 transcript levels is “significant increase”.

**Q.** What about the MyoD transcript levels ([1]; tibialis anterior, aged mice, 3 and 7 days post cardiotoxin, apelin 0.5 μmol/kg/day, BGE-105 50 and 200 mg/kg/day) of the same compound?
**A.** The MyoD transcript levels was “significant increase”.

**Q.** What about the MyHC3 transcript levels [1, 5] of the same compound?
**A.** Its MyHC3 transcript levels is “significant increase”.

**Q.** What about the Myf5 transcript levels [1, 5] of the same compound?
**A.** The Myf5 transcript levels was “significant change”.

**Q.** What about the MyoG transcript levels [1, 5] of the same compound?
**A.** The MyoG transcript levels was “significant increase”.

**Q.** And the Pax7 transcript levels ([1]; tibialis, young (3-month-old) mice, 3 or 7 days, apelin 0.5 μmol/kg/day, BGE-105 50 and 200 mg/kg/day)?
**A.** The Pax7 transcript levels was “no change”.

**Q.** And the MyHC3 transcript levels [1, 6]?
**A.** Its MyHC3 transcript levels is “no significant change”.

**Q.** What about the MyHC8 transcript levels [1, 6] of the same compound?
**A.** The MyHC8 transcript levels was “no significant change”.

**Q.** What about the Myf5 transcript levels [1, 6] of the same compound?
**A.** Its Myf5 transcript levels is “no difference”.

**Q.** And the MyoD transcript levels [1, 6]?
**A.** The MyoD transcript levels was “no significant increase”.

**Q.** What about the MyoG transcript levels [1, 6] of the same compound?
**A.** The MyoG transcript levels was “no difference”.

**Q.** What about the “amount of centrally nucleated myofibers (CNM)” value ([2]; 18-months old mice after cardiotoxin, apelin 0.5 μmol/kg/day, BGE-105 200 mg/kg/day) of the same compound?
**A.** Its value is “significant increase”.

**Q.** And the “cross-sectional area of the tibialis” value ([2]; aged mice, 3 and 7 days post cardiotoxin, apelin, BGE-105 50 and 200 mg/kg/d)?
**A.** Its value is “significant increase in cross sectional area”.
